Laboratory results taken from ChEMBL document CHEMBL2057131, “Novel steroid inhibitors of glucose 6-phosphate dehydrogenase” (J Med Chem, 2012).

What was measured:
[1] = target: T1, Glucose-6-phosphate 1-dehydrogenase (Homo sapiens, UniProt P11413); experiment: Inhibition of human recombinant N-terminal His tagged G6PD expressed in Escherichia coli JM109 (DE3) cells assessed as production of NADPH after 30 mins by Amplite fluorimetric assay
[2] = target: T1, Glucose-6-phosphate 1-dehydrogenase; experiment: Inhibition of G6PD in HEK293T cells assessed as accumulation of 6-phosphogluconate after 5 hrs by LC-MS/MS analysis using 6-aminonicotinamide; type: cell-based, HEK-293T
[3] = target: T1, Glucose-6-phosphate 1-dehydrogenase; experiment: Ratio of IC50 for G6PD in HEK293T cells to IC50 for human recombinant G6PD expressed in Escherichia coli JM109 (DE3) cells; conditions: HEK-293T
[4] = Aqueous solubility of the compound in phosphate buffer by turbidimetric method; type: physicochemical
[5] = target: T2, Cytochrome P450 1A (Homo sapiens, UniProt P04798+P05177); experiment: Inhibition of CYP1A at > 25 uM; type: ADME
T2 sequence (P04798 whole entry): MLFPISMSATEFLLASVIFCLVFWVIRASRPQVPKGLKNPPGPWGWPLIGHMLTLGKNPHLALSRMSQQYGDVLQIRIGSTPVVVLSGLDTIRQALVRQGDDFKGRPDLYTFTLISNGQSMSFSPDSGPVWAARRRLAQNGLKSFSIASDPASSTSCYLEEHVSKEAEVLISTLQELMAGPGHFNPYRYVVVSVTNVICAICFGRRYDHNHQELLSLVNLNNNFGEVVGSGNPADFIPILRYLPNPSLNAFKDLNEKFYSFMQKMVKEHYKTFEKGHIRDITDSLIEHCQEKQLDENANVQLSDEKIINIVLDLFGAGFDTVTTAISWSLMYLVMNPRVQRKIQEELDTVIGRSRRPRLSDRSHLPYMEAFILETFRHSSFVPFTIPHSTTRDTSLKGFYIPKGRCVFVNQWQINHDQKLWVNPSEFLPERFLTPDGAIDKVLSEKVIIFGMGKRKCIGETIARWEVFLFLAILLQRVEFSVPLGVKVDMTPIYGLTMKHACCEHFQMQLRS
T2 sequence (P05177 whole entry): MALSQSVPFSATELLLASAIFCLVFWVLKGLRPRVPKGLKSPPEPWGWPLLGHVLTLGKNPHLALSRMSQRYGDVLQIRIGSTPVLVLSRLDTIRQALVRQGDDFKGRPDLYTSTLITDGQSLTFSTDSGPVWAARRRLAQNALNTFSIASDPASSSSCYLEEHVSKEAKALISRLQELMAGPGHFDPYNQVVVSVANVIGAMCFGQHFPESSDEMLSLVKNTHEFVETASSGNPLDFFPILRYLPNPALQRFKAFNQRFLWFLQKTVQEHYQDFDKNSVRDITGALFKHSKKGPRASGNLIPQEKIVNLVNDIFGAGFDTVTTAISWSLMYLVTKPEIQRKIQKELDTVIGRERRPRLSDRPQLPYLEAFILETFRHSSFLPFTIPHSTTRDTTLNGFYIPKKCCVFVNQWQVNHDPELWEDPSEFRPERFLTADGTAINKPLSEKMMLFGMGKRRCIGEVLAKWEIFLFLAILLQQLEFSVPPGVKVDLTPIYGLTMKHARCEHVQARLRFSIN

[6] = target: Cytochrome P450 2C19 (Homo sapiens, UniProt P33261); experiment: Inhibition of CYP2C19 at > 25 uM; type: ADME
[7] = target: Cytochrome P450 2C9 (Homo sapiens, UniProt P11712); experiment: Inhibition of CYP2C9 at > 25 uM; type: ADME
[8] = target: Cytochrome P450 2D6 (Homo sapiens, UniProt P10635); experiment: Inhibition of CYP2D6 at > 25 uM; type: ADME
[9] = target: Cytochrome P450 3A4 (Homo sapiens, UniProt P08684); experiment: Inhibition of CYP3A4 at > 25 uM; type: ADME
Cytochrome P450 3A4, sequence (P08684 whole entry): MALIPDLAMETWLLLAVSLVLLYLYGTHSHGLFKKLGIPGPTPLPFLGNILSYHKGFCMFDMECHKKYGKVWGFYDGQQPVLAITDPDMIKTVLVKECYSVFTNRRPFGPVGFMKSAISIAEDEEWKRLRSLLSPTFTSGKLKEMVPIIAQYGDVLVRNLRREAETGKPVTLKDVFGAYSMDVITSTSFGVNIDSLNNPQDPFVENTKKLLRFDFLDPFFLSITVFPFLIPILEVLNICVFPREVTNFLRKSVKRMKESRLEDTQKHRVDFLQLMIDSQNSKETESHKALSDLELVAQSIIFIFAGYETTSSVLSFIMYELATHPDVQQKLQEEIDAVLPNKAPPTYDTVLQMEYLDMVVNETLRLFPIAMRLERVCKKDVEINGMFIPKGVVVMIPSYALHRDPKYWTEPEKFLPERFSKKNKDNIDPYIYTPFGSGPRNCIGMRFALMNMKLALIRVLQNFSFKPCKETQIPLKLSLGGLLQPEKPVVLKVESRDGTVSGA

T1 sequence (P11413 whole entry): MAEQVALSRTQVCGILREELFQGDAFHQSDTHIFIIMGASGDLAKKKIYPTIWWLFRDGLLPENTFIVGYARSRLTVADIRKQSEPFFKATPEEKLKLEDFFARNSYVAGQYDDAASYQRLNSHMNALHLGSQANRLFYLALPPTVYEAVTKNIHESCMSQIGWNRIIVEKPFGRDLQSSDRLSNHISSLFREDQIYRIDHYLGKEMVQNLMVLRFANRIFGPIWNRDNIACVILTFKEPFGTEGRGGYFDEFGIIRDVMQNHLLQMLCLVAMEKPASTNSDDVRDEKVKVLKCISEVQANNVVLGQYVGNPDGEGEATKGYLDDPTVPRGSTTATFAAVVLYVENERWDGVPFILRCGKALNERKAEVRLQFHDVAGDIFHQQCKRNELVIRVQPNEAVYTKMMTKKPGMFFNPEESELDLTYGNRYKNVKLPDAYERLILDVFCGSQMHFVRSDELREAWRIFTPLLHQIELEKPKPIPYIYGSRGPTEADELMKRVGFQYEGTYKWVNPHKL
Cytochrome P450 2C9, sequence (P11712 whole entry): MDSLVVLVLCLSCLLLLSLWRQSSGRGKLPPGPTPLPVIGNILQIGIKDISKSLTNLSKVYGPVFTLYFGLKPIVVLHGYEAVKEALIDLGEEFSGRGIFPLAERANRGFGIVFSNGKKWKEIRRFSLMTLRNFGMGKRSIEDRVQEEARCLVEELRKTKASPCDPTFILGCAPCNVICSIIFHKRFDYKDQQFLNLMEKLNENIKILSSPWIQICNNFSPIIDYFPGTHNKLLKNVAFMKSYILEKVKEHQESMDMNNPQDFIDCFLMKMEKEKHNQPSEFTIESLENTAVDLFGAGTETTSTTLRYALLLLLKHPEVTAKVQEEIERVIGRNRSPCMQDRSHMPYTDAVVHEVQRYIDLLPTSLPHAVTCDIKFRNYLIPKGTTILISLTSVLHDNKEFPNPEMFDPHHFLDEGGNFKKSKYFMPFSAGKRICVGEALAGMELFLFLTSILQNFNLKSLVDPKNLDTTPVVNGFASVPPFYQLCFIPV
Cytochrome P450 2D6, sequence (P10635 whole entry): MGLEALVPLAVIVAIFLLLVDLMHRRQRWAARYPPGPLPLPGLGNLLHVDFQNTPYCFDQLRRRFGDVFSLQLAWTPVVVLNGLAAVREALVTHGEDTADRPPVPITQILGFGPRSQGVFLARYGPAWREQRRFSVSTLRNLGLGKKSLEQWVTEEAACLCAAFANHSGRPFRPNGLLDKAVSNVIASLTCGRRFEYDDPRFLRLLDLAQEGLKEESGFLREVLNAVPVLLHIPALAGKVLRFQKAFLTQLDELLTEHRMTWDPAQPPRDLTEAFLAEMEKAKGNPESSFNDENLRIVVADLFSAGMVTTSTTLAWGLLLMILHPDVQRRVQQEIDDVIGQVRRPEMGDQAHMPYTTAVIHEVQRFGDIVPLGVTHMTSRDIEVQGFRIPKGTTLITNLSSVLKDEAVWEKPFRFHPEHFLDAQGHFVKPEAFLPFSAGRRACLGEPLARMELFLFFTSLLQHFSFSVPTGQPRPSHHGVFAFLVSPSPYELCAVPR
Cytochrome P450 2C19, sequence (P33261 whole entry): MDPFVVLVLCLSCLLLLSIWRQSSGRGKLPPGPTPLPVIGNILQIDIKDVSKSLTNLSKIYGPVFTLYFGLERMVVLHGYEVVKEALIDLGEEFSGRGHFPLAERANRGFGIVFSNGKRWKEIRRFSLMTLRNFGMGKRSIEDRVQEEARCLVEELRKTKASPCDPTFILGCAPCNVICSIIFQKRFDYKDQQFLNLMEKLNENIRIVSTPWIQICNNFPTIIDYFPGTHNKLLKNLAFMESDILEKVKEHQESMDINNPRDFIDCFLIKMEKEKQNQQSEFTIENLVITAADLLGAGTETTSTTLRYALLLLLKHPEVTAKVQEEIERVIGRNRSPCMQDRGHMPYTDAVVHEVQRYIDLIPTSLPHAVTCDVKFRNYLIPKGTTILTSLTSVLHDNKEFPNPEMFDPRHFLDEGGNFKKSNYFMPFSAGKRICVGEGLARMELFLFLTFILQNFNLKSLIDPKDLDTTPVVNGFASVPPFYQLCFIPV

`C[C@]12CC[C@H](O)C[C@@H]1CC[C@@H]1[C@@H]2CC[C@]2(C)[C@@H](C(=O)CO)CC[C@@H]12` showed an IC50 [1] of 0.9 µM, an IC50 [2] of 12.3 µM and a Ratio IC50 [3] of 13.7. For the same compound, the solubility kinetic [4] was greater than 100 µM, the “inhibition (INH)” value [5] was “Not Active” and the “inhibition (INH)” value [6] was “Not Active”. For the same compound, the “inhibition (INH)” value [7] was “Not Active”, the “inhibition (INH)” value [8] was “Not Active” and the “inhibition (INH)” value [9] was “Not Active”.
